Consider 38 compounds from patent publication US11401286B2 (Tetra Discovery Partners, LLC, priority 2012, dated 2022).

The term IC50 denotes the concentration that gives 50% inhibition.

Counter-ions that a name gives are not always drawn.

Sequence of PDE4D7 (Q08499 other isoform, or with tags, fused parts or gaps): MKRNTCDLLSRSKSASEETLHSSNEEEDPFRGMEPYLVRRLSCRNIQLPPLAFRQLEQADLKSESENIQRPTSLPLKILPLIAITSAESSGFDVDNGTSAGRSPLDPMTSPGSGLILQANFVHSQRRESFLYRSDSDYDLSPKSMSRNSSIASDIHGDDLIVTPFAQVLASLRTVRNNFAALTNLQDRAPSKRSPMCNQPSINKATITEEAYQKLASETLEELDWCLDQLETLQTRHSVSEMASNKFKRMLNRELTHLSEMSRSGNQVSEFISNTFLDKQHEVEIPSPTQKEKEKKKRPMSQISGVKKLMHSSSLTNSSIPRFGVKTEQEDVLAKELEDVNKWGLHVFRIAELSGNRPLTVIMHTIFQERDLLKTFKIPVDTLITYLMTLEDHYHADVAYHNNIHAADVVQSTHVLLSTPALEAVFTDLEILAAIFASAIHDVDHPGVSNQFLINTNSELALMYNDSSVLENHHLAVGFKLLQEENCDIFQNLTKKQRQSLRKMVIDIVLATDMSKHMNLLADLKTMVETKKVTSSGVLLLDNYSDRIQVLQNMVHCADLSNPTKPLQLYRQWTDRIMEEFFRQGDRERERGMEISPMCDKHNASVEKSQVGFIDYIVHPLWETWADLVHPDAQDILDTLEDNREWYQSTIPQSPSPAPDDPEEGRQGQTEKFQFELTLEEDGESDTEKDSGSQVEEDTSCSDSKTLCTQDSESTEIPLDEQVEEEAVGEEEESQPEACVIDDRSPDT

One assay concerns the target PDE4D7 (Homo sapiens (Human), UniProt Q08499). Particulars: read-out: PDE4D7 IC50.
As to `O=C(O)COc1ccc(Nc2cc(-c3cccc(Cl)c3)nc3c2CCC3)cc1` [Example 4, 2-[4-[[2-(3-Chlorophenyl)-6,7-dihydro-5H-cyclopenta[b]pyridin-4-yl]amino]phenoxy]acetic acid], the half-maximal inhibitory concentration (IC50) is > 1000 nM.

Staying with this assay, now noted: read-out: PDE4D7 IC50; PDE4D7 without asterisk.
Take `CCc1cc(Cc2ccc(C(C)(C)C(N)=O)cc2)nc(-c2cccc(Cl)c2)n1` [Example 196, 2-(4-((2-(3-Chlorophenyl)-6-ethylpyrimidin-4-yl)methyl)phenyl)-2-methylpropanamide]: the concentration for half-maximal inhibition (IC50) was > 1000 nM. With `O=C(Cc1ccc(Nc2cc(C3CC3)nc(-c3cccc(Cl)c3)n2)nc1)NCCO` [Example 215, 2-(6-((2-(3-Chlorophenyl)-6-cyclopropylpyrimidin-4-yl)amino)pyridin-3-yl)-N-(2-hydroxyethyl)acetamide], the 50% inhibitory concentration (IC50) was < 1000 nM. On the same count and under the same terms, in the case of `NC(=O)Cc1ccc(Nc2cc(OC3CCCC3)nc3c2CCC3)cc1` [Example 256, 2-(4-((2-(Cyclopentyloxy)-6,7-dihydro-5H-cyclopenta[b]pyridin-4-yl)amino)phenyl)acetamide hydrochloride] it was > 1000 nM. Still for that read-out and setting: in the case of `O=S1(=O)CCCc2nc(-c3cccc(Cl)c3)nc(Cc3ccc(CCO)cc3)c21` [Example 278, 2-(3-chlorophenyl)-4-(4-(2-hydroxyethyl)benzyl)-7,8-dihydro-6H-thiopyrano[3,2-d]pyrimidine 5,5-dioxide] it was < 1000 nM; in that of `NC(=O)CCCc1ccc(Nc2cc(-c3cccc(Cl)c3)nc3c2CCC3)cc1` [Example 130, 4-(4-((2-(3-Chlorophenyl)-6,7-dihydro-5H-cyclopenta[b]pyridin-4-yl)amino)phenyl)butanamide hydrochloride], > 1000 nM.

As to `NC(=O)Cc1ccc(Nc2cc(-c3cc(Cl)cc(Cl)c3)nc3c2CCC3)cc1` [Example 157, 2-(4-((2-(3,5-Dichlorophenyl)-6,7-dihydro-5H-cyclopenta[b]pyridin-4-yl)amino)phenyl)acetamide hydrochloride], the half-inhibitory concentration (IC50) was > 1000 nM.

For the compound `OCCc1ccc(Nc2cc(-c3ccc(Cl)c(Cl)c3)nc3c2CCC3)cc1` [Example 154, 2-(4-((2-(3,4-Dichlorophenyl)-6,7-dihydro-5H-cyclopenta[b]pyridin-4-yl)amino)phenyl)ethanol hydrochloride], the IC50 is > 1000 nM. Same read-out and setting: in the case of `O=C(O)CCCc1ccc(Nc2cc(-c3cccc(Cl)c3)nc3c2CCC3)cc1` [Example 8, 4-[4-[[2-(3-Chlorophenyl)-6,7-dihydro-5H-cyclopenta[b]pyridin-4-yl]amino]phenyl]butanoic acid] it was > 1000 nM; in that of `OCCCc1cccc(-c2cc(-c3cccc(Cl)c3)nc3c2CCC3)c1` [Example 266, 3-(3-(2-(3-chlorophenyl)-6,7-dihydro-5H-cyclopenta[b]pyridin-4-yl)phenyl)propan-1-ol hydrochloride], > 1000 nM. Same read-out and setting: in the case of `C[C@@H](O)Cc1ccc(Nc2cc(-c3cccc(Cl)c3)nc3c2CCC3)cc1` [Example 106, (R)-1-(4-((2-(3-Chlorophenyl)-6,7-dihydro-5H-cyclopenta[b]pyridin-4-yl)amino)phenyl)propan-2-ol] it was > 1000 nM. On the same count and under the same terms, in the case of `NC(=O)Cc1ccc(Nc2cc(-c3cccc(Cl)c3)nc(C(F)(F)F)c2)cc1` [Example 145, 2-(4-((2-(3-Chlorophenyl)-6-(trifluoromethyl)pyridin-4-yl)amino)phenyl)acetamide] it was < 1000 nM; in that of `CCc1nc(Nc2ccc(C#N)cc2)nc(-c2cccc(Cl)c2)n1` [Example 51, 4-(4-(3-chlorophenyl)-6-ethyl-1,3,5-triazin-2-ylamino)benzonitrile], < 1000 nM; in that of `OCCc1ccc(Nc2nc(C3CCCC3)nc3c2SCCC3)cc1` [Example 283, 2-(4-((2-Cyclopentyl-7,8-dihydro-6H-thiopyrano[3,2-d]pyrimidin-4-yl)amino)phenyl)ethanol], < 1000 nM.

In the case of `CCc1cc(Cc2ccc(CC(=O)O)cc2)nc(C2CCCC2)n1` [Example 224, 2-(4-((2-Cyclopentyl-6-ethylpyrimidin-4-yl)methyl)phenyl)acetic acid], the half-maximal inhibitory concentration (IC50) is > 1000 nM.

Turning to `OCCc1ccc(Nc2cc(C(F)(F)F)nc(OC3CCCC3)n2)cc1` [Example 199, 2-(4-((2-(Cyclopentyloxy)-6-(trifluoromethyl)pyrimidin-4-yl)amino)phenyl)ethanol], the IC50 was < 1000 nM.

With `O=C(O)Cc1ccc(Nc2nc(-c3cccc(Cl)c3)nc3c2S(=O)(=O)CCC3)cc1` [Example 275, 2-(4-((2-(3-chlorophenyl)-5,5-dioxido-7,8-dihydro-6H-thiopyrano[3,2-d]pyrimidin-4-yl)amino)phenyl)acetic acid], the IC50 is < 1000 nM. On the same count and under the same terms, in the case of `OCCc1ccc(Nc2cc(-c3cccc(Cl)c3)nc(C(F)(F)F)c2)cc1` [Example 146, 2-(4-((2-(3-Chlorophenyl)-6-(trifluoromethyl)pyridin-4-yl)amino)phenyl)ethanol] it was < 1000 nM; in that of `CCc1c(C)nc(-c2ccc(Cl)s2)nc1Nc1ccc(Cc2nc(C(=O)OC)c[nH]2)cc1` [Example 305, Methyl 2-[[4-[[2-(5-chloro-2-thienyl)-5-ethyl-6-methyl-pyrimidin-4-yl]amino]phenyl]methyl]-1H-imidazole-4-carboxylate], > 1000 nM; in that of `OCCc1ccc(Nc2cc(-c3cc(F)cc(Cl)c3)nc3c2CCC3)cc1` [Example 153, 2-(4-((2-(3-Chloro-5-fluorophenyl)-6,7-dihydro-5H-cyclopenta[b]pyridin-4-yl)amino)phenyl)ethanol hydrochloride], > 1000 nM. The same measure, in the same setting: the figure for `COC(=O)c1ccc(Nc2cc(-c3cccc(Cl)c3)nc3c2CCC3)cc1` [Example 87, Methyl 4-((2-(3-chlorophenyl)-6,7-dihydro-5H-cyclopenta[b]pyridin-4-yl)amino)benzoatehydrochloride] is > 1000 nM.

As for `COC(=O)Cc1ccc(Nc2nc(Cl)nc(-c3ccc(Cl)s3)n2)cc1` [Example 35, methyl 2-(4-((4-chloro-6-(5-chlorothiophen-2-yl)-1,3,5-triazin-2-yl)amino)phenyl)acetate], the IC50 was > 1000 nM. Same read-out and setting: in the case of `OCCc1ccc(Nc2nc(-c3cccc(Cl)c3)nc3c2CCC3)cc1` [Example 162, 2-(4-((2-(3-Chlorophenyl)-6,7-dihydro-5H-cyclopenta[d]pyrimidin-4-yl)amino)phenyl)ethanol] it was < 1000 nM; in that of `OCCc1ccc(Nc2cc(C(F)(F)F)nc(C3CCCC3)n2)cc1` [Example 227, 2-(4-((2-Cyclopentyl-6-(trifluoromethyl)pyrimidin-4-yl)amino)phenyl)ethanol], < 1000 nM; in that of `OCCc1ccc(Cc2cc(C(F)(F)F)nc(-c3cccc(Cl)c3)n2)cc1` [Example 205, 2-(4-((2-(3-Chlorophenyl)-6-(trifluoromethyl)pyrimidin-4-yl)methyl)phenyl)ethanol], > 1000 nM. On the same count and under the same terms, in the case of `CC(C)c1nc(Nc2ccc(C(=O)O)cc2)nc(-c2ccc(Cl)s2)n1` [Example 29, 4-(4-(5-chlorothiophen-2-yl)-6-isopropyl-1,3,5-triazin-2-ylamino)benzoic acid] it was < 1000 nM; in that of `O=S1(=O)CCc2nc(-c3cccc(Cl)c3)nc(Nc3ccc(CCO)cc3)c21` [Example 281, 2-(3-Chlorophenyl)-4-((4-(2-hydroxyethyl)phenyl)amino)-6,7-dihydrothieno[3,2-d]pyrimidine 5,5-dioxide], < 1000 nM. On the same count and under the same terms, the figure for `CCc1nc(Oc2ccc(CC(N)=O)cc2)nc(-c2cccc(Cl)c2)n1` [Example 61, 2-(4-((4-(3-chlorophenyl)-6-ethyl-1,3,5-triazin-2-yl)oxy)phenyl)acetamide] is > 1000 nM; for `CCCNC(=O)Cc1ccc(Nc2nc(-c3ccc(Cl)s3)nc(C)c2CC)cc1` [Example 307, 2-[4-[[2-(5-Chloro-2-thienyl)-5-ethyl-6-methyl-pyrimidin-4-yl]amino]phenyl]-N-propyl-acetamide] it is < 1000 nM.

For the compound `OCCc1ccc(Nc2nc(-c3cccc(Cl)c3)nc3c2SCC3)cc1` [Example 279, 2-(4-((2-(3-Chlorophenyl)-6,7-dihydrothieno[3,2-d]pyrimidin-4-yl)amino)phenyl)ethanol], the IC50 was < 1000 nM.

Regarding `OCCc1ccc(Nc2cc(OC3CCCC3)nc3c2CCC3)cc1` [Example 257, 2-(4-((2-(Cyclopentyloxy)-6,7-dihydro-5H-cyclopenta[b]pyridin-4-yl)amino)phenyl)ethanol hydrochloride], the 50% inhibitory concentration (IC50) is > 1000 nM. Consider `OCCc1ccc(Nc2cc(-c3ncco3)nc3c2CCC3)cc1` [Example 241, 2-(4-((2-(Oxazol-2-yl)-6,7-dihydro-5H-cyclopenta[b]pyridin-4-yl)amino)phenyl)ethanol], for which the IC50 was > 1000 nM.

Take `Fc1ccc(Nc2cc(-c3cccc(Cl)c3)nc3c2CCC3)cc1` [Example 290, 2-(3-Chlorophenyl)-N-(4-fluorophenyl)-6,7-dihydro-5H-cyclopenta[b]pyridin-4-amine hydrochloride]: the IC50 was > 1000 nM. On the same count and under the same terms, in the case of `CCc1nc(Nc2ccc(CC(=O)O)cc2)nc(-c2cccc(Cl)c2)n1` [Example 39, 2-(4-((4-(3-chlorophenyl)-6-ethyl-1,3,5-triazin-2-yl)amino)phenyl)acetic acid] it was > 1000 nM; in that of `OCc1ccc(Nc2cc(-c3cccc(Cl)c3)nc3c2CCC3)cc1` [Example 88, (4-((2-(3-Chlorophenyl)-6,7-dihydro-5H-cyclopenta[b]pyridin-4-yl)amino)phenyl)methanol], > 1000 nM. Same read-out and setting: the figure for `CCCNC(=O)Cc1ccc(Nc2nc(-c3cccc(Cl)c3)nc3c2S(=O)(=O)CCC3)cc1` [Example 276, 2-(4-((2-(3-Chlorophenyl)-5,5-dioxido-7,8-dihydro-6H-thiopyrano[3,2-d]pyrimidin-4-yl)amino)phenyl)-N-propylacetamide] is > 1000 nM; for `NC(=O)Cc1ccc(Nc2ccnc(-c3cccc(Cl)c3)c2)cc1` [Example 83, 2-(4-((2-(3-Chlorophenyl)pyridin-4-yl)amino)phenyl)acetamide hydrochloride] it is > 1000 nM. As to `COCCc1ccc(Nc2cc(-c3cccc(Cl)c3)nc3c2CCC3)cc1` [Example 86, 2-(3-Chlorophenyl)-N-(4-(2-methoxyethyl)phenyl)-6,7-dihydro-5H-cyclopenta[b]pyridin-4-amine hydrochloride], the IC50 was > 1000 nM.
